Results as given in publication PMC7948456, “Kinetics of cytochrome P450 3A4 inhibition by heterocyclic drugs defines a general sequential multistep binding process” (The Journal of Biological Chemistry, 2020).

Key:
[1] = biological target: T1, P450 3A4 (Homo sapiens, UniProt P08684, form not given); test: in vitro; settings: P450 3A4 reconstituted with cholate/phospholipid mixture, probe testosterone 6β-hydroxylation, 25 μM
[2] = biological target: T1, P450 3A4; test: in vitro; settings: P450 3A4 reconstituted with cholate/phospholipid mixture, probe 7-OBz quinoline (7-benzoyl quinoline) O-debenzylation, 20 μM
Procedure: For catalytic assays, P450 3A4 was reconstituted with a cholate/phospholipid mixture as described previously ([42], [43]). In general, reactions were initiated either with NADPH (1 mM) or an NADPH-generating system ([76]).
Water was added, and 7-OBz quinoline (in ethanol) was aliquoted at 0.5% (v/v) to a final concentration of 20 μM. Inhibitors (in dimethyl sulfoxide) were added (final concentration 0.5% dimethyl sulfoxide, v/v) for their desired final concentrations (0–10 μM), bringing the total organic solvent composition of the reaction to 1% (v/v). Preincubations proceeded at 37 °C for 5 min and were initiated with the addition of the NADPH-generating system ([76]). Reactions (8 min) were quenched with 100 μl of cold CH3CN on ice and centrifuged at 2000g for 10 min to pellet precipitated protein. […] The product 7-OH quinoline was detected using a Waters Acuity fluorescence detector with excitation and emission wavelengths set at 420 and 503 nm, respectively.

[3] = biological target: T2, P450 3A4 (Homo sapiens, UniProt P08684); settings: inhibitor 0.02 μM
Procedure: Assays for the kinetics of inhibition were done using an OLIS RSM-1000 stopped-flow instrument (On-Line Instrument Systems) in the fluorescence mode (150 W xenon lamp), with the excitation monochromator set at 410 nm and using a >515 nm Oriel long-pass filter (Newport) with the sample photomultiplier tube. The slit widths were 6.32 mm, and the sample and reference voltages of the photomultiplier tubes were 700 and 350 V, respectively. Reactions were done at 23 °C for 180 s.
One syringe contained the P450 3A4 system (100 nM P450 3A4, 200 nM POR, and 100 nM cytochrome b5) along with the other components of a “5×” mixture (potassium Hepes (pH 7.4), reduced glutathione, sodium cholate, and phospholipid mixture) combined with the 5× buffer mixture (Hepes, MgCl2, and reduced glutathione) ([42]), plus NADPH and the inhibitor compound. Fluorescence data were collected for 3 min (at 23 °C) and moved to Excel, Prism, and KinTek Explorer programs for analysis.

[4] = biological target: T2, P450 3A4; settings: equimolar inhibitor (50 nM), 160 μM 7-OBz quinoline added, 23 °C
[5] = biological target: T2, P450 3A4; settings: P450 enzyme system + NADPH, UPLC-MS
[6] = biological target: T2, P450 3A4; test: Inhibitor-binding kinetics (stopped-flow absorbance, SVD analysis); settings: P450 3A4 2 μM
Source text: Equal volumes of buffered solutions of P450 3A4 and ligand were mixed, with a nominal dead time of 2 ms. Data were collected in the Show Pre-trigger Mode, with a short amount of data from the previous run (completed reaction) shown prior to mixing. […] From the accumulated spectra from each individual experiment (5–10 shots per concentration), generally the A420 data were subtracted from the A390 data points or A390 data were subtracted from the A425 data points, and the difference (ΔA390 − A420 or ΔA425 − A390 versus time) traces were averaged using the OLIS GlobalWorks software and fit to first-order fits (or used in SVD analysis; Figs. 9 and S7–S10).

[7] = inhibitor 15 μM, three-species 1→2→3 model

T1 sequence (P08684 13-503): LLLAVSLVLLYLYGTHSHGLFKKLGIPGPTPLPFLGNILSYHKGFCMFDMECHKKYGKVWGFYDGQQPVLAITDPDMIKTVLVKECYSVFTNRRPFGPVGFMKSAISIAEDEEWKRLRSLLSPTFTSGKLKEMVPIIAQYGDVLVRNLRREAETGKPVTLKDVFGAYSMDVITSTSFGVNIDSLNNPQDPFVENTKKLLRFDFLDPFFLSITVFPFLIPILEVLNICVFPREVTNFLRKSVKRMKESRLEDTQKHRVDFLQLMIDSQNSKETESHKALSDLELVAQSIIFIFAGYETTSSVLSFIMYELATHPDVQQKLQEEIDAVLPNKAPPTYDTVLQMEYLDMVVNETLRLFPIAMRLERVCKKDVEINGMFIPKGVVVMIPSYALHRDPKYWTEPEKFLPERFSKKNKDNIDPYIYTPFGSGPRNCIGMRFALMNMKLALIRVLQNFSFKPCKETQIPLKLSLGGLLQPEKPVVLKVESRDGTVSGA
T1 sequence (P00388 2-678 partner): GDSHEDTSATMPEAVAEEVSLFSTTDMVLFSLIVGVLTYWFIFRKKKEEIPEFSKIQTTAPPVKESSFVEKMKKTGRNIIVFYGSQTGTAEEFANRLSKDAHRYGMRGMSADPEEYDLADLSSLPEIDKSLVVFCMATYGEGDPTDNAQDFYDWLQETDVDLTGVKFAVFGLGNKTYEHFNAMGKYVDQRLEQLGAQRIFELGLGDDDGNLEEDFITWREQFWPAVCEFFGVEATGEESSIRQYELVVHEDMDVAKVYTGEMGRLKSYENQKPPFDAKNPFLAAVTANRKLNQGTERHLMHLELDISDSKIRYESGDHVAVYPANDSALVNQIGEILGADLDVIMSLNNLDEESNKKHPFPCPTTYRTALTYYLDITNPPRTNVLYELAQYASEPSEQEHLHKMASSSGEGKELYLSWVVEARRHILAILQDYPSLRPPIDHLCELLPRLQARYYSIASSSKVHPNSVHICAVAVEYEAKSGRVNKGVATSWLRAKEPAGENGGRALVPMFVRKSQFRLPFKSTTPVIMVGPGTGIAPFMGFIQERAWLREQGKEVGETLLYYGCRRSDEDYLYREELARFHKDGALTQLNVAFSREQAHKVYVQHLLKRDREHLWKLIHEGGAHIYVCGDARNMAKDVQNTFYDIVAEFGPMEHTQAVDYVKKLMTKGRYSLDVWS
T1 sequence (P00167 2-134 partner): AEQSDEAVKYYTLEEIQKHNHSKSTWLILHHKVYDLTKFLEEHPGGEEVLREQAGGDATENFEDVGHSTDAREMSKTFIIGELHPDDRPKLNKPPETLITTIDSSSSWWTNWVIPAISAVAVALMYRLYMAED
T2 sequence (P08684 13-503): as the sequence (P08684 13-503) above
T2 sequence (P00388 2-678 partner): as the sequence (P00388 2-678 partner) above
T2 sequence (P00167 2-134 partner): as the sequence (P00167 2-134 partner) above

Structure (SMILES) | IC50 at 15 min [1] | IC50 at 8 min [2] | Onset of 7-OBz quinoline O-debenzylation inhibition, Rate (k1) [3] | lag phase in recovery of catalytic activity [4] | substrate for P450 3A4 (product formation) [5] | Spectral binding (SVD) k1 [6, 7] | Spectral binding (SVD) k2 [6, 7] | kobs, initial rate of binding (ΔA390 − A425) ([6]; ligand 4 μM final)
CCC(C)n1ncn(-c2ccc(N3CCN(c4ccc(OCC5COC(Cn6cncn6)(c6ccc(Cl)cc6Cl)O5)cc4)CC3)cc2)c1=O (stereo not shown) [Itraconazole] | 1.49 µM | 2.02 µM | – | – | – | – | – | –
Clc1ccccc1C(c1ccccc1)(c1ccccc1)n1ccnc1 [Clotrimazole] | 0.11 µM | 0.11 µM | 0.39 ± 0.03 s⁻¹ | ~45 s | is a substrate as well as an inhibitor of P450 3A4 | 0.092 ± 0.01 s | 0.016 ± 0.005 s⁻¹ | 235 s⁻¹
